The values below come from patent US11000033B2, “Ketone or oxime compound, and herbicide” (NISSAN CHEMICAL CORPORATION, priority 2014, dated 2021).

Assay type in all cases: in vivo
In data set [1] the test system is corn. The data set can be described thus: Test Example 5: effect on crop by foliage application, plastic box (symbol c). As to conditions: 320 g/ha, 3 weeks after application. A digest of the protocol:
(§1)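 Soil: sterilized diluvial. Container: plastic box, 21 × 13 cm, 7 cm deep. Sowing: spot-like, ~1.5 cm cover. Growth: greenhouse, 25° C. to 30° C.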

The subject of data set [2] is wheat. Nature of the data set: Test Example 5: effect on crop by foliage application, plastic box (symbol e). As to conditions: 320 g/ha, 3 weeks after application. Summed up: as §1
For data set [3], the system named is Galium spurium. Nature of the data set: Test Example 5: herbicidal effect by foliage application, plastic box (symbol Q). As to conditions: 320 g/ha, 3 weeks after application. A digest of the protocol:
(§2)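 Sowing in sterilized diluvial soil, 14 days' greenhouse growth at 25° C. to 30° C., then uniform small-sprayer foliar application of aqueous emulsion dilution; plants scored three weeks afterwards.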

Data set [4] deals with Abutilon theophrasti. The data set can be described thus: Test Example 4: herbicidal effect by soil treatment (symbol M). As to conditions: application herbicide amount 320 g/ha. A digest of the protocol:
(§3)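 Seeds were sown in sterilized diluvial soil, covered with about 1.5 cm of soil, and the soil surface was sprayed with a water-diluted emulsion of the compound at a predetermined rate. Plants grew in a greenhouse at 25° C. to 30° C.; effects were scored visually 3 weeks after application.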

Data set [5] concerns Apera spica-venti. The data set can be described thus: Test Example 5: herbicidal effect by foliage application, plastic box (symbol L). As to conditions: 320 g/ha, 3 weeks after application. A digest of the protocol: as §2
Data set [6] has as its system Monochoria vaginalis. The data set can be described thus: Test Example 1: herbicidal activity, application before weed generation in submerged conditions (symbol C). As to conditions: application herbicide amount 320 g/ha. A digest of the protocol:
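Ratings (5: ≥90%, near complete withering; 4: 70–<90%; 3: 40–<70%; 2: 20–<40%; 1: 5–<20%; 0: ≤5%) were assigned 3 weeks after the diluted emulsion was applied to the water surface of freshly sown, submerged pots.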

Data set [7] deals with Leptochloa chinensis. Nature of the data set: Test Example 3: herbicidal effect by foliage application, Wagner pot (symbol D). As to conditions: application herbicide amount 320 g/ha, Table 24. A digest of the protocol:
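Herbicidal activity was rated three weeks after a foliar spray of diluted emulsion concentrate, applied at a predetermined dose to plants grown for 14 days from seed in waterlogged alluvial soil within a 25–30 °C greenhouse.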

For data set [8], the system named is Amaranthus retroflexus. The data set can be described thus: Test Example 4: herbicidal effect by soil treatment (symbol N). As to conditions: application herbicide amount 320 g/ha. A digest of the protocol:
as §3

Data set [9] deals with rapeseed. Nature of the data set: Test Example 4: effect on crop by soil treatment (symbol g). As to conditions: application herbicide amount 320 g/ha. A digest of the protocol: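 Greenhouse culture at 25° C. to 30° C. followed sowing of seed in spots on sterilized diluvial soil with a soil cover close to 1.5 cm thick.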
The subject of data set [10] is directly sowed rice plant. The data set can be described thus: Test Example 3: effect on crop by foliage application, Wagner pot (symbol b). As to conditions: application herbicide amount 320 g/ha, Table 24. Summed up:
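Steps: fill a 1/10000-are Wagner pot with alluvial soil; add water and mix to submerge at 0.1–0.5 cm depth; sow rice plus Echinochloa crus-galli var. crus-galli, Leptochloa chinensis and Cyperus difformis; grow in a 25–30 °C greenhouse.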

Data set [11] has as its system transplanted rice plant. Nature of the data set: Test Example 1: effect on crop, application before weed generation in submerged conditions (symbol a). As to conditions: application herbicide amount 320 g/ha. Summed up: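 Alluvial soil pots flooded to 4 cm water, sown with Echinochloa oryzacola, Scirpus juncoides and Monochoria vaginalis, then transplanted with 2.5 leaf stage rice seedlings; pre-emergence application. Greenhouse 25° C. to 30° C.; scored 0–5 by herbicidal ratio 3 weeks after application.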

For data set [12], the system named is Digitaria ciliaris. The data set can be described thus: Test Example 4: herbicidal effect by soil treatment (symbol F). As to conditions: application herbicide amount 320 g/ha. A digest of the protocol: as §3
Data set [13] concerns beet. The data set can be described thus: Test Example 5: effect on crop by foliage application, plastic box (symbol f). As to conditions: 320 g/ha, 3 weeks after application. A digest of the protocol: as §1

In the case of `COCCON=C(CC1CC(O)=C(c2c(C)cc(Br)cc2C)C1=O)C1CC1` (centres unmarked) [9-019], the “c: corn, effect on crop grade” value in data set [1] is on record as 5 (Herbicidal ratio of 90% or more (almost completely withered)). The “e: wheat, effect on crop grade” value in data set [2] is 0 (Herbicidal ratio of 5% or lower (almost no effect)). Moreover, the “Q: Galium spurium, herbicidal effect grade” value in data set [3] was 0 (Herbicidal ratio of 5% or lower (almost no effect)). Besides, in data set [4], the “Herbicidal effect grade, M: Abutilon theophrasti” value was 0 (Herbicidal ratio of 5% or lower (almost no effect)). Also, in data set [5], the “L: Apera spica-venti, herbicidal effect grade” value is 1 (Herbicidal ratio of 5% or higher and lower than 20%). For the same molecule, the “C (Monochoria vaginalis) herbicidal effect grade” value in data set [6] is given as 0 (Herbicidal ratio of 5% or lower (almost no effect)). The “D (Leptochloa chinensis) herbicidal effect grade” value in data set [7] was 5 (Herbicidal ratio of 90% or more (almost completely withered)). Also, in [8], the “Herbicidal effect grade, N: Amaranthus retroflexus” value was 0 (Herbicidal ratio of 5% or lower (almost no effect)). The “Effect on crop grade, g: rapeseed” value in data set [9] is 0 (Herbicidal ratio of 5% or lower (almost no effect)). In addition, the “b (directly sowed rice plant) effect on crop grade” value in [10] is given as 5 (Herbicidal ratio of 90% or more (almost completely withered)). Further, the “a (transplanted rice plant) effect on crop grade” value in data set [11] is 4 (Herbicidal ratio of 70% or higher and lower than 90%). Also, the “Herbicidal effect grade, F: Digitaria ciliaris” value in data set [12] is 0 (Herbicidal ratio of 5% or lower (almost no effect)). For the same molecule, the “f: beet, effect on crop grade” value in [13] was 0 (Herbicidal ratio of 5% or lower (almost no effect)).

Turning to `CON=C(C)CC1C(O)=C(c2c(C)cc(C)cc2C)C(=O)C1C` (mixture of isomers) [12-002], in data set [1], the “c: corn, effect on crop grade” value is listed as 5 (Herbicidal ratio of 90% or more (almost completely withered)). The “e: wheat, effect on crop grade” value in data set [2] was 2 (Herbicidal ratio of 20% or higher and lower than 40%). In [3], the “Q: Galium spurium, herbicidal effect grade” value was 4 (Herbicidal ratio of 70% or higher and lower than 90%). For the same molecule, in data set [4], the “Herbicidal effect grade, M: Abutilon theophrasti” value is reported as 0 (Herbicidal ratio of 5% or lower (almost no effect)). The “L: Apera spica-venti, herbicidal effect grade” value in data set [5] is on record as 5 (Herbicidal ratio of 90% or more (almost completely withered)). The “C (Monochoria vaginalis) herbicidal effect grade” value in [6] was 2 (Herbicidal ratio of 20% or higher and lower than 40%). In addition, the “D (Leptochloa chinensis) herbicidal effect grade” value in data set [7] is given as 5 (Herbicidal ratio of 90% or more (almost completely withered)). Moreover, in data set [8], the “Herbicidal effect grade, N: Amaranthus retroflexus” value was 0 (Herbicidal ratio of 5% or lower (almost no effect)). Also, the “Effect on crop grade, g: rapeseed” value in data set [9] was 1 (Herbicidal ratio of 5% or higher and lower than 20%). Moreover, in data set [10], the “b (directly sowed rice plant) effect on crop grade” value is 5 (Herbicidal ratio of 90% or more (almost completely withered)). In data set [11], the “a (transplanted rice plant) effect on crop grade” value was 3 (Herbicidal ratio of 40% or higher and lower than 70%). The “Herbicidal effect grade, F: Digitaria ciliaris” value in data set [12] is 4 (Herbicidal ratio of 70% or higher and lower than 90%). For the same molecule, in [13], the “f: beet, effect on crop grade” value was 3 (Herbicidal ratio of 40% or higher and lower than 70%).
